Test results as given in ChEMBL document CHEMBL1201862, “PubChem BioAssay data set” (2004).
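96-well plates; 48 h exposure; 5 concentrations. Endpoints by linear interpolation between flanking doses. Not reached: highest tested concentration assigned. The concentration for 50% growth inhibition is given as GI50.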 The source made the active and inactive calls. No stated cut-off is given here; in the data, active = GI50 up to about 1.1 µM and inactive = higher.

Tests used:
Experiment in all cases: NCI anticancer screen, dose series, 48 h
MCF7 = tested on: MCF7
NCI/ADR-RES = tested on: NCI/ADR-RES
OVCAR-8 = tested on: OVCAR-8
OVCAR-5 = tested on: OVCAR-5
KM12 = tested on: KM12
SN12C = tested on: SN12C
PC-3 = tested on: PC-3
COLO 205 = tested on: COLO 205
HCT-15 = tested on: HCT-15
EKVX = tested on: EKVX
SF-268 = tested on: SF-268
UO-31 = tested on: UO-31
A498 = tested on: A498
ACHN = tested on: ACHN
NCI-H460 = tested on: NCI-H460
RXF 393 = tested on: RXF 393
OVCAR-3 = tested on: OVCAR-3
CCRF-CEM = tested on: CCRF-CEM
SK-OV-3 = tested on: SK-OV-3
OVCAR-4 = tested on: OVCAR-4

SMILES | GI50 (MCF7) | GI50 (NCI/ADR-RES) | GI50 (OVCAR-8) | GI50 (OVCAR-5) | GI50 (KM12) | GI50 (SN12C) | GI50 (PC-3) | GI50 (COLO 205) | GI50 (HCT-15) [µM] | GI50 (EKVX) | GI50 (SF-268) | GI50 (UO-31) | GI50 (A498) | GI50 (ACHN) | GI50 (NCI-H460) | GI50 (RXF 393) | GI50 (OVCAR-3) | GI50 (CCRF-CEM) | GI50 (SK-OV-3) | GI50 (OVCAR-4)
COc1c(O)c(O)c2c(c1O)C(=O)c1cc(C)cc(O)c1C2=O | 44.8 µM (inactive) | 16.7 µM (inactive) | 20.1 µM (inactive) | 43 µM (inactive) | 35.2 µM (inactive) | 50.7 µM (inactive) | 31.1 µM (inactive) | 24.5 µM (inactive) | 14.1 | 22.4 µM (inactive) | 30.2 µM (inactive) | 23.1 µM (inactive) | 49.2 µM (inactive) | 40.3 µM (inactive) | 18.7 µM (inactive) | > 70.8 µM (inactive) | 26.4 µM (inactive) | 33.3 µM (inactive) | 36.8 µM (inactive) | 14.4 µM (inactive)
CCOC(=O)N1CCc2cc(OC)c(OC)c3c2c1cc1cc(OC)c(OC)cc13 | 1.1 µM (active) | 0.655 µM (active) | 4.8 µM (inactive) | 16.9 µM (inactive) | 0.695 µM (active) | 4.62 µM (inactive) | 1.54 µM (inactive) | 0.787 µM (active) | 0.914 | 8.97 µM (inactive) | 4.51 µM (inactive) | 11.1 µM (inactive) | 2.21 µM (inactive) | 4.11 µM (inactive) | 1.09 µM (active) | 2 µM (inactive) | 0.984 µM (active) | 4.26 µM (inactive) | 2.56 µM (inactive) | 10.5 µM (inactive)
N=C(N)NCCCS(=O)(=O)Nc1ccc(Nc2c3ccccc3nc3cc([N+](=O)[O-])ccc23)cc1 | 2.53 µM (inactive) | 19.6 µM (inactive) | 20.6 µM (inactive) | 25.4 µM (inactive) | 10.2 µM (inactive) | 4.83 µM (inactive) | 11.7 µM (inactive) | 14.5 µM (inactive) | > 85.9 | 15.7 µM (inactive) | 6.19 µM (inactive) | > 68.4 µM (inactive) | 17.5 µM (inactive) | 21.4 µM (inactive) | 0.265 µM (active) | 20.8 µM (inactive) | 15.6 µM (inactive) | 12.6 µM (inactive) | 17.3 µM (inactive) | 16.6 µM (inactive)
CC(NC(=O)/C(C#N)=C/c1ccc2[nH]ccc2c1)c1ccccc1 (stereo not given) | 20.9 µM (inactive) | 28.8 µM (inactive) | 21.3 µM (inactive) | 17.5 µM (inactive) | 17.3 µM (inactive) | 18.7 µM (inactive) | 20.3 µM (inactive) | 17.1 µM (inactive) | 12.5 | 22 µM (inactive) | 21.5 µM (inactive) | 14.7 µM (inactive) | 16.5 µM (inactive) | 21.6 µM (inactive) | 18.4 µM (inactive) | 19.3 µM (inactive) | 24.9 µM (inactive) | 17.5 µM (inactive) | 21.9 µM (inactive) | 20.2 µM (inactive)
Cc1c(C2=C(Br)C(=O)N(C)C2=O)c(=O)n(C)c(=O)n1C | 20.2 µM (inactive) | 27.8 µM (inactive) | 29.6 µM (inactive) | 61.8 µM (inactive) | > 100 µM (inactive) | 95.1 µM (inactive) | 23.6 µM (inactive) | 15.3 µM (inactive) | 19.4 | 21.6 µM (inactive) | 43.5 µM (inactive) | 18.5 µM (inactive) | 29.4 µM (inactive) | 26.7 µM (inactive) | 45.6 µM (inactive) | 14.3 µM (inactive) | 37.2 µM (inactive) | 12.2 µM (inactive) | > 100 µM (inactive) | 37.7 µM (inactive)
CCN(CC)C(=S)SC(C(=O)Nc1nnc(-c2ccc(Cl)cc2)o1)c1ccccc1 (stereo not given) | 7.26 µM (inactive) | 5.68 µM (inactive) | 5.79 µM (inactive) | 6.41 µM (inactive) | 17.9 µM (inactive) | 13.3 µM (inactive) | 3.35 µM (inactive) | 4.06 µM (inactive) | 3.81 | 8.47 µM (inactive) | 15.6 µM (inactive) | 17 µM (inactive) | 11.9 µM (inactive) | 6.64 µM (inactive) | 10.4 µM (inactive) | 14.9 µM (inactive) | 3.21 µM (inactive) | 2.84 µM (inactive) | 13 µM (inactive) | 3.08 µM (inactive)
CCCCC/C=C1\CCC(CN2CCOCC2)C1=O (stereo not given) | 1.6 µM (inactive) | 3.94 µM (inactive) | 7.26 µM (inactive) | 18.6 µM (inactive) | 3.49 µM (inactive) | 15.2 µM (inactive) | 16.9 µM (inactive) | 3.67 µM (inactive) | 5.32 | 17.5 µM (inactive) | 12.2 µM (inactive) | 12.4 µM (inactive) | 17.7 µM (inactive) | 15.5 µM (inactive) | 22.1 µM (inactive) | 5.66 µM (inactive) | 5.9 µM (inactive) | 2.9 µM (inactive) | 18.5 µM (inactive) | 16.2 µM (inactive)
Nc1nc(F)nc2c1ncn2C1OC(CO)C(O)C1O (stereo not given) | 57.7 µM (inactive) | 3.78 µM (inactive) | 4.61 µM (inactive) | > 100 µM (inactive) | > 100 µM (inactive) | 3.89 µM (inactive) | 30.5 µM (inactive) | 53.1 µM (inactive) | > 75 | > 100 µM (inactive) | > 61.7 µM (inactive) | 11.1 µM (inactive) | > 60.3 µM (inactive) | 34 µM (inactive) | 73.1 µM (inactive) | > 81.8 µM (inactive) | > 100 µM (inactive) | 0.344 µM (active) | 23.2 µM (inactive) | > 100 µM (inactive)
Cc1cc(S(=O)(=O)Nc2nc(N)nc(N(C)C)n2)c(SC(C(=O)O)c2ccccc2)cc1Cl (stereo not given) | > 10 µM (inactive) | > 10 µM (inactive) | > 10 µM (inactive) | > 10 µM (inactive) | > 10 µM (inactive) | > 10 µM (inactive) | > 10 µM (inactive) | > 10 µM (inactive) | > 10 | > 10 µM (inactive) | > 10 µM (inactive) | > 10 µM (inactive) | > 10 µM (inactive) | > 10 µM (inactive) | > 10 µM (inactive) | > 10 µM (inactive) | > 10 µM (inactive) | > 10 µM (inactive) | > 10 µM (inactive) | > 10 µM (inactive)
[O-][n+]1onc2c1CCC(=N\O)/C2=N/Nc1ccccc1 | > 100 µM (inactive) | > 100 µM (inactive) | > 100 µM (inactive) | > 100 µM (inactive) | > 100 µM (inactive) | > 100 µM (inactive) | > 100 µM (inactive) | > 100 µM (inactive) | > 100 | > 100 µM (inactive) | > 100 µM (inactive) | > 100 µM (inactive) | > 100 µM (inactive) | > 100 µM (inactive) | > 100 µM (inactive) | > 100 µM (inactive) | > 100 µM (inactive) | > 100 µM (inactive) | > 100 µM (inactive) | > 100 µM (inactive)
O=c1cc(/C=C/c2ccc(O)c(O)c2)cc(/C=C/c2ccc(O)c(O)c2)o1 | 4.05 µM (inactive) | 32.9 µM (inactive) | 18.6 µM (inactive) | 12.2 µM (inactive) | 8.43 µM (inactive) | 9.71 µM (inactive) | 9.16 µM (inactive) | 12.1 µM (inactive) | 10.4 | 8.11 µM (inactive) | 5.86 µM (inactive) | 4.22 µM (inactive) | 11 µM (inactive) | 5.85 µM (inactive) | 14.3 µM (inactive) | 6.71 µM (inactive) | 7.71 µM (inactive) | 7.66 µM (inactive) | 11.5 µM (inactive) | 14.3 µM (inactive)
CO[C@H]1O[C@@H]2CO[C@@H](c3ccccc3)O[C@H]2C[C@]12CCC/C=C\CO2 | 15.2 µM (inactive) | 21 µM (inactive) | 12.1 µM (inactive) | 60.1 µM (inactive) | 29.5 µM (inactive) | 14.8 µM (inactive) | 16.2 µM (inactive) | 13.9 µM (inactive) | 13 | 11.6 µM (inactive) | 14.4 µM (inactive) | 14.3 µM (inactive) | 14 µM (inactive) | 15.5 µM (inactive) | 47.4 µM (inactive) | 13.9 µM (inactive) | 12.7 µM (inactive) | 10.4 µM (inactive) | 37.7 µM (inactive) | 21.9 µM (inactive)
COC(COC(N)=O)C1=C(N2CC2)C(=O)C(C)=C(N2CC2)C1=O (stereo not given) [CARBOQUONE] | < 0.01 µM (active) | 0.0241 µM (active) | 0.0318 µM (active) | 0.106 µM (active) | 0.122 µM (active) | < 0.0266 µM (active) | 0.213 µM (active) | 0.113 µM (active) | 0.0594 | 0.47 µM (active) | < 0.016 µM (active) | 0.0307 µM (active) | 0.0904 µM (active) | < 0.01 µM (active) | < 0.01 µM (active) | 0.107 µM (active) | 0.0607 µM (active) | 0.0355 µM (active) | 0.0718 µM (active) | 0.126 µM (active)
COc1cc2ncnc(Nc3cccc(Br)c3)c2cc1OC | 23.1 µM (inactive) | 2.46 µM (inactive) | 3.72 µM (inactive) | 8.13 µM (inactive) | 2.7 µM (inactive) | 13.2 µM (inactive) | 3.77 µM (inactive) | 4.43 µM (inactive) | 6.56 | 0.316 µM (active) | 3.81 µM (inactive) | 1.98 µM (inactive) | 3.12 µM (inactive) | 0.06 µM (active) | 5.75 µM (inactive) | 11.5 µM (inactive) | 5.14 µM (inactive) | 30.2 µM (inactive) | 0.284 µM (active) | 4.07 µM (inactive)
